These results are taken from patent US20240197760A1, “ACTIVATORS OF INTEGRATED STRESS RESPONSE PATHWAY FOR PROTECTION AGAINST FERROPTOSIS” (Burke Neurological Institute, priority 2021, published 2024).

The test system of data set [1] is ATF4. Kind of data set: In vivo bioluminescence imaging of 5′UTR ATF4 luciferase reporter in mouse brain. Particulars: 10 mg/Kg intraperitoneally for 4 h. A general note: In a reporter assay the amount or activity of a reporter protein is the signal.
Data set [2] has as its system ICH mice. As to the kind of experiment: Collagenase-induced intracerebral hemorrhage (ICH), tape removal test. The settings on record: 10 mg/Kg i.p. from 24 h after collagenase, every day for 3 weeks; from day 7 onwards (days 7 and 21 vs saline). Type of data set: in vivo, mouse. The protocol: To assess the effect of 2-DG on the Bdnf gene expression, mice were injected with either saline or 2-DG (10 mg/Kg) intraperitoneally for 6 h and then mice were euthanized properly, and hippocampi were dissected out from mice brain. In order to assess functional improvement with 2-DG treatment after ischemic stroke, mice were injected with 2-DG (10 mg/Kg) intraperitoneally 24 h after induction of the stroke and then every day for four weeks. For assessing functional improvement with 2-DG treatment after hemorrhagic stroke, mice were injected with 2-DG (10 mg/Kg) intraperitoneally 24 h after induction of the stroke and then every day for three weeks. ICH was induced as described before (Karuppagounder et al., 2016). Briefly, male C57BL/6 mice (8 to 10 weeks of age; Charles River) were anesthetized with isoflurane (2 to 5%) and placed on a stereotaxic frame. During the procedure, the animal's body temperature was maintained at 37° ° C. with a homeothermic blanket. […] of collagenase (0.075 IU; Sigma) was infused into the right striatum at a flow rate of […] with a nanomite syringe pump (Harvard Apparatus) and a Hamilton syringe. […] The time from which the tape was applied to when the mouse successfully removed it was recorded for each paw. […]

Data set [3] relates to human Bdnf promoters. As to the kind of experiment: Human Bdnf promoter luciferase reporters in HT22 cells. Type of data set: cell-based, mouse. Particulars: 10 mM, 6 h.
Data set [4] relates to mouse primary neurons. Kind of data set: Live-dead cell viability assay (calcein-AM / ethidium homodimer). The settings on record: 1 mM to 15 mM, 24 h, cultured mouse primary neurons. Type of data set: cell-based.
The subject of data set [5] is hippocampal slices. Kind of data set: Long term potentiation (fEPSP) in submerged hippocampal slices. Set-up: species or system mouse. Particulars: 10 mM for 6 h in ACSF. The source says:
Brains were quickly removed from mice sacrificed by cervical dislocation and placed in cold artificial cerebrospinal fluid (ACSF) (bubbled with 95% O2/5% CO2) containing (in mM): 124 NaCl, 4 KCl, 1 Na2HPO4, 25 NaHCO3, 2 CaCl2, 2 MgCl2, and 10 glucose. The pH and osmolarity of the solution were 7.4 and 310 mOsm/L, respectively. The hippocampus was isolated and placed on a mechanical tissue chopper to produce transverse hippocampal slices of 400 μm thickness. […] Hippocampal slices were allowed to recover for at least 90 min prior to beginning the experiment. For recordings, glass electrodes were filled with ACSF and positioned in the CA1 stratum radiatum to record fEPSPs evoked by local stimulation (0.1 ms) of Schaffer collateral fibers using a bipolar concentric electrode placed laterally to the recording electrode (˜150 μm). For LTP recordings, the voltage intensity of the stimulation test pulse (square pulse, 100 us duration) for each slice was determined to be the voltage intensity that had generated 30-40% of the maximum slope obtained using input-output relationships. Facilitation was calculated as the ratio of the slopes of the second and first fEPSPs, and plotted as a function of the inter-pulse duration. For LTP, a test pulse was applied every minute. […] Residual potentiation was calculated as the average of the last 15 min of 2 h of recordings.

Data set [6] has as its system AMPK. As to the kind of experiment: AMPK phosphorylation (threonine 172) immunoblot in primary cortical neurons. Type of data set: cell-based, mouse. The settings on record: increasing concentrations 1-15 mM, 4 h. The method, then: Whole cell proteins were extracted in Triton X-100 lysis buffer (1% Triton X-100, 1% SDS, 50 mM Tris-Cl, pH 7.4, 500 mM NaCl and 1 mM EDTA). Samples were boiled in Laemmli buffer and electrophoresed under reducing conditions on NuPAGER Novex 4-12% Bis-Tris Gel polyacrylamide gels (Invitrogen). Proteins were transferred to a nitrocellulose membrane (Bio-Rad) by electroblotting. Nonspecific binding was inhibited by incubation in Odyssey blocking buffer (LI-COR Biosciences). Antibodies against Glut3 (Abcam, Catalog no. AB41525, dilution 1:1000), actin (Sigma Aldrich, Catalog no. A5316, dilution 1:10000), BDNF (Santacruz Biotechnology, Catalog no. sc-546, dilution 1:10,000), tubulin (Sigma Aldrich, Catalog no. T8203, dilution 1:10000), p-AMPK (Cell Signaling Technology, Cat no. 2535L, dilution 1:1000), AMPK (Cell Signaling Technology, Cat no. 2532L, dilution 1:1000), GFP (Cell Signaling Technology, Cat no. 2555S, dilution 1:2000), elF2S1 (phospho S51) (Abcam, Catalog no. AB32157, dilution 1:500), and eIF2α (Cell Signaling Technology, Cat no. 9722, dilution 1:500) were diluted in odyssey blocking buffer and the membranes were incubated overnight at 4° C. […] Finally, proteins were detected using an Odyssey infrared imaging system (LI-COR Biosciences).

“Also recorded” adds a separate entry of the source.

On to `OC[C@H]1OC(O)C[C@@H](O)[C@@H]1O` (stereo partly drawn) [2-DG, (4R,5S,6R)-6-(hydroxymethyl)oxane-2,4,5-triol], for which the “ATF4 translation in the mouse brain (luciferase activity)” value in data set [1] is given as “significant increase”. The “tape removal test after hemorrhagic stroke” value in data set [2] was “significant improvement; also recorded: significant difference”. The “promoter activity of nine human Bdnf promoters” value in data set [3] is given as “all Bdnf promoters except Bdnf promoter VI were significantly upregulated”. Moreover, the “toxicity / neuronal cell death in live-dead assay” value in data set [4] is listed as “no toxicity”. In addition, in data set [5], the “LTP in submerged hippocampal slices” value is reported as “significant increase”. For the same molecule, the “level of AMPK phosphorylation at threonine 172” value in data set [6] was “biphasic”.
